Results taken from publication PMC3996367, “Profiling of drugs and environmental chemicals for functional impairment of neural crest migration in a novel stem cell-based test battery” (Archives of Toxicology, 2014).
Several values for one entry are separate records, joined by “and”; a condition that tells them apart may be missing. Equal values may be shown once. Read-outs that look alike come from different tables or passages of the source.

Tests used:
[1] = system: neural embryonic stem cell test (ESTn); set-up: method as in Theunissen et al. (2012); conditions: ref Theunissen et al. (2012); cited from earlier work
rat whole embryo culture = system: rat whole embryo culture; set-up: method as in Robinson et al. (2012); conditions: 48 hours, ref Robinson et al. (2012), cited from earlier work
rat fetuses = system: rat fetuses; set-up: method as in Machera 1995; conditions: cleft palate and hydrocephaly as most common malformations; ref Machera 1995; cited from earlier work
zebrafish embryos = system: zebrafish embryos; set-up: method as in Hermsen et al. (2012); conditions: pericardial edema, malformations of head and heart; ref Hermsen et al. (2012); cited from earlier work
[2] = system: migration of hESC-derived neural crest cells (NCC); test: MINC assay (migration inhibition of neural crest cells, UKN2); conditions: 48 h, in a non-cytotoxic concentration range
dopaminergic PC12 cells = system: dopaminergic PC12 cells; set-up: method as in Heusinkveld et al. (2013); conditions: ref Heusinkveld et al. (2013); cited from earlier work
[3] = head of Fig. S4 entry; compiled from in vivo/in vitro studies and simulations
[4] = system: hESC-derived neural crest cells (NCC)
rats [5] = conditions: cited from earlier work
[6] = system: mESC-derived neural stem cells (mESCn)
[7] = set-up: method as in US EPA [2006]; conditions: ref US EPA [2006]; cited from earlier work
Xenopus laevis embryos = system: Xenopus laevis embryos; set-up: method as in Di Renzo et al. (2011); conditions: treated during early neurulation; craniofacial defects, bent forebrain, abnormal hindbrain segmentation; ref Di Renzo et al. (2011); cited from earlier work
[8] = set-up: method as in US EPA [2006]; conditions: ref US EPA [2006]; cited from earlier work; remark: listed apart in the source
[9] = system: embryonic stem cell differentiation; set-up: method as in de Jong et al. 2009; conditions: ref de Jong et al. 2009; cited from earlier work
whole embryo culture = system: whole embryo culture; set-up: method as in Piersma et al. (2008); conditions: ref Piersma et al. (2008); cited from earlier work
[10] = cited from earlier work; for Geometric mean concentration in maternal serum: ref Eskenazi et al. (2013); for Average concentration in breast milk: ref Gascon et al. (2012)
plasma proteins = conditions: cited from earlier work
[11] = human plasma, literature data mining; ref per-compound studies in Fig. S4; cited from earlier work
[12] = calculated from CC and plasma protein binding
rats [13] = conditions: single oral dose to dams on gestational day 6, Wistar rat; ref Kuriyama et al. (2005); cited from earlier work
fetal growth = system: fetal growth; set-up: method as in Govarts et al. (2012); conditions: per 1 µg/l increase in cord serum PCB-153; ref Govarts et al. (2012); cited from earlier work

## CC(C1CC1)C(O)(Cn1cncn1)c1ccc(Cl)cc1 (stereo not shown) [Cyproconazole]
[1]
  Concentration reducing cell viability to 80%: 117.6 µM
Rat whole embryo culture; 1 mM
  Malformations: 50%
Rat whole embryo culture; 1.7 mM
  Malformations: 100%
Rat fetuses
  Suggested NOEL: 20 mg/kg
Zebrafish embryos
  Concentration increasing teratogenic effects: 65 µM
[2]
  Effect on NCC migration in concentration-response study: concentration-dependent effect
Dopaminergic PC12 cells
  Inhibitory concentration on depolarization-evoked intracellular calcium concentration: 65 µM
[3]
  DT concentration: 65 to 118 µM

## CC(C)(C)C(=O)C(Oc1ccc(Cl)cc1)n1cncn1 (stereo not shown) [Triadimefon]
[4]; human
  Concentration for hit finding in NCC (highest non-cytotoxic concentration in the UKN2 test system): 50 µM
Rats [5]; Wistar rats, perinatal exposure, ref Goetz et al. (2007)
  Dose increasing testosterone levels and related effects in male offspring: 47 mg/kg/day
Rats [5]; chronic dietary exposure, male Wistar rats, ref US EPA (2006)
  Dose causing the same neurotoxic symptoms: 54.6 mg/kg/day
Rats [5]; effects on male fertility and CNS toxicity, ref Crowell et al. 2011
  Doses at which a range of toxic effects is observed: around 50 mg/kg/day
Rats [5]; single dose, oral gavage, adult male Long-Evans rats, ref Crofton et al. (2011)
  Dose causing transient CNS toxicity (hyperactivity, stereotyped behavior): 50 mg/kg
HEK293 cells; human
  Highest non-cytotoxic conc. in HEK293: 50.0 µM
[2]
  Effect on NCC migration in concentration-response study: concentration-dependent effect
[6]; mouse
  Highest non-cytotoxic conc. in mESCn: > 50.0 µM
[7]
  Octanol:water partition (Kow): 912
Xenopus laevis embryos
  Concentration inducing abnormalities: 500 µM
[8]
  Blood:plasma concentration ratio: 0.84
  Free (unbound) fraction: 0.11

## COCC(=O)O [Methoxyacetic acid]
[9]
  BMC50: 2.4 mM
Whole embryo culture
  BMC5: 1.6 mM
[10]; due to permitted occupational EGME exposure, ref Welsch 2005
  Estimated human blood concentration: approximately 60 μM
[10]; head of Fig. S4 entry, ref studies in Fig. S4
  Human exposure concentration: 60 µM
[3]
  DT concentration: 7500 µM

## CC[C@H](C)[C@@H]1NC(=O)[C@H](Cc2ccc(O)cc2)NC(=O)[C@@H](N)CSSC[C@@H](C(=O)N2CCC[C@H]2C(=O)N[C@@H](CC(C)C)C(=O)NCC(N)=O)NC(=O)[C@H](CC(N)=O)NC(=O)[C@H](CCC(N)=O)NC1=O [Oxytocin]
[4]; 48 h
  Concentration for hit finding in NCC (highest non-cytotoxic concentration in the UKN2 test system): 0.1 µM
HEK293 cells; 48 h
  Highest non-cytotoxic conc. in HEK293: > 0.1 µM
Plasma proteins; ref Fabian et al. (1969)
  Binding state in plasma: unbound
[11]
  Clinical conc. (CC; total/maximal plasma concentration): 2.0 nM
[6]; 48 h
  Highest non-cytotoxic conc. in mESCn: > 100.0 µM
[12]
  Free conc. (FCC; free plasma concentration): 2.0 nM

## Brc1ccc(Oc2cc(Br)c(Br)cc2Br)c(Br)c1 [PBDE-99, 2,2′,4,4′,5-pentabromodiphenyl ether]
[2]
  Effect on NCC migration in concentration-response study: concentration-dependent effect
Rats [13]
  Dose causing hyperactivity and impaired spermatogenesis in offspring: 0.11 µmol/kg
[10]; converted
  Geometric mean concentration in maternal serum: 25 ng/l and 44 pM
  Average concentration in breast milk: 1 ng/l and 1.8 pM
[10]
  Geometric mean concentration in maternal serum: 4.5 ng/g
  Average concentration in breast milk: 0.27 ng/g lw

## Clc1cc(Cl)c(-c2cc(Cl)c(Cl)cc2Cl)cc1Cl [PCB-153]
[2]
  Effect on NCC migration in concentration-response study: concentration-dependent effect
[10]; cohort of 7990 women, ref Govarts et al. (2012)
  Median cord serum concentration: 140 ng/l and 388 pM
[10]; ref Covaci et al. (2002)
  Maternal serum concentration: 670 ± 350 pg/mL
[3]
  DT concentration: 0.000388 µM
Fetal growth
  Reduction of birth weight: 150 g

## C[C@]12CC[C@H](O)CC1=CC[C@@H]1[C@@H]2CC[C@]2(C)C(c3cccnc3)=CC[C@@H]12 [Abiraterone]
[4]; human
  Concentration for hit finding in NCC (highest non-cytotoxic concentration in the UKN2 test system): 2 µM
HEK293 cells; human
  Highest non-cytotoxic conc. in HEK293: 2.0 µM
Plasma proteins; ref Gurav et al. (2012)
  Bound to plasma proteins: > 98.8%
[11]
  Clinical conc. (CC; total/maximal plasma concentration): 647.3 nM
[2]
  Effect on NCC migration in concentration-response study: concentration-dependent effect
[6]; mouse
  Highest non-cytotoxic conc. in mESCn: 0.97 µM
[12]
  Free conc. (FCC; free plasma concentration): 7.8 nM
